ChEMBL document CHEMBL1152085, “Novel 3-deoxy-3-descladinosyl-6-O-methyl erythromycin a analogues. Synthesis and in vitro activity” (1997)
Values after ≈ are worked out from the molar mass of the structure shown.

Assays:
Assay type in all cases: functional
Streptococcus equinus [1] = experiment: Tested in vitro for minimum inhibitory concentration to produce antibacterial activity against Streptococcus bovis A-5169
Staphylococcus aureus [2] = experiment: Tested in vitro for minimum inhibitory concentration to produce antibacterial activity against Staphylococcus aureus NCTC-10649M in presence of erythromycin A
[3] = test system: Staphylococcus epidermidis; experiment: Tested in vitro for minimum inhibitory concentration to produce antibacterial activity against Staphylococcus epidermidis 3519
Streptococcus equinus [4] = experiment: Tested in vitro for minimum inhibitory concentration to produce antibacterial activity against Streptococcus bovis A-5169 in presence of erythromycin A
Streptococcus pyogenes [5] = experiment: Tested in vitro for minimum inhibitory concentration to produce antibacterial activity against Streptococcus pyogenes PIU 2548 in presence of erythromycin A
Staphylococcus aureus [6] = experiment: Tested in vitro for minimum inhibitory concentration to produce antibacterial activity against Staphylococcus aureus CMX 642A
Staphylococcus aureus [7] = experiment: Tested in vitro for minimum inhibitory concentration to produce antibacterial activity against Staphylococcus aureus CMX 642A in presence of erythromycin A
Streptococcus pyogenes [8] = experiment: Tested in vitro for minimum inhibitory concentration to produce antibacterial activity against Streptococcus pyogenes EES61
Staphylococcus aureus [9] = experiment: Tested in vitro for minimum inhibitory concentration to produce antibacterial activity against Staphylococcus aureus A-5278
Escherichia coli [10] = experiment: Tested in vitro for minimum inhibitory concentration to produce antibacterial activity against Escherichia coli SS
[11] = test system: Staphylococcus epidermidis; experiment: Tested in vitro for minimum inhibitory concentration to produce antibacterial activity against Staphylococcus epidermidis 3519 in presence of erythromycin A
Staphylococcus aureus [12] = experiment: Tested in vitro for minimum inhibitory concentration to produce antibacterial activity against Staphylococcus aureus CMX 553
Streptococcus pyogenes [13] = experiment: Tested in vitro for minimum inhibitory concentration to produce antibacterial activity against Streptococcus pyogenes EES61 in presence of erythromycin A
Streptococcus agalactiae [14] = experiment: Tested in vitro for minimum inhibitory concentration to produce antibacterial activity against Streptococcus agalactiae CMX 508
Staphylococcus aureus [15] = experiment: Tested in vitro for minimum inhibitory concentration to produce antibacterial activity against Staphylococcus aureus 1775 in presence of erythromycin A
Enterococcus faecium [16] = experiment: Tested in vitro for minimum inhibitory concentration to produce antibacterial activity against Enterococcus faecium ATCC 8043
Staphylococcus aureus [17] = experiment: Tested in vitro for minimum inhibitory concentration to produce antibacterial activity against Staphylococcus aureus NCTC-10649M
Escherichia coli [18] = experiment: Tested in vitro for minimum inhibitory concentration to produce antibacterial activity against Escherichia coli JUHL in presence of erythromycin A
Staphylococcus aureus [19] = experiment: Tested in vitro for minimum inhibitory concentration to produce antibacterial activity against Staphylococcus aureus A5177 in presence of erythromycin A
Staphylococcus aureus [20] = experiment: Tested in vitro for minimum inhibitory concentration to produce antibacterial activity against Staphylococcus aureus 1775
Streptococcus agalactiae [21] = experiment: Tested in vitro for minimum inhibitory concentration to produce antibacterial activity against Streptococcus agalactiae CMX 508 in presence of erythromycin A
Enterococcus faecium [22] = experiment: Tested in vitro for minimum inhibitory concentration to produce antibacterial activity against Enterococcus faecium ATCC 8043 in presence of erythromycin A
Escherichia coli [23] = experiment: Tested in vitro for minimum inhibitory concentration to produce antibacterial activity against Escherichia coli JUHL
Staphylococcus aureus [24] = experiment: Tested in vitro for minimum inhibitory concentration to produce antibacterial activity against Staphylococcus aureus CMX 553 in presence of erythromycin A
Staphylococcus aureus [25] = experiment: Tested in vitro for minimum inhibitory concentration to produce antibacterial activity against Staphylococcus aureus ATCC 6538P in presence of erythromycin A
Streptococcus pyogenes [26] = experiment: Tested in vitro for minimum inhibitory concentration to produce antibacterial activity against Streptococcus pyogenes PIU 2548
Staphylococcus aureus [27] = experiment: Tested in vitro for minimum inhibitory concentration to produce antibacterial activity against Staphylococcus aureus A5177
Staphylococcus aureus [28] = experiment: Tested in vitro for minimum inhibitory concentration to produce antibacterial activity against Staphylococcus aureus A-5278 in presence of erythromycin A
Escherichia coli [29] = experiment: Tested in vitro for minimum inhibitory concentration to produce antibacterial activity against Escherichia coli SS in presence of erythromycin A
Staphylococcus aureus [30] = experiment: Tested in vitro for minimum inhibitory concentration to produce antibacterial activity against Staphylococcus aureus ATCC 6538P
Streptococcus pyogenes [31] = experiment: Tested in vitro for minimum inhibitory concentration to produce antibacterial activity against Streptococcus pyogenes 930 in presence of erythromycin A
Streptococcus pyogenes [32] = experiment: Tested in vitro for minimum inhibitory concentration to produce antibacterial activity against Streptococcus pyogenes 930

Structure (SMILES)	MIC (Streptococcus equinus [1]) [µg/mL]	MIC (Staphylococcus aureus [2]) [µg/mL]	MIC [3] [µg/mL]	MIC (Streptococcus equinus [4]) [µg/mL]	MIC (Staphylococcus aureus [6]) [µg/mL]	MIC (Staphylococcus aureus [7]) [µg/mL]	MIC (Streptococcus pyogenes [8]) [µg/mL]	MIC (Staphylococcus aureus [9]) [µg/mL]	MIC [11] [µg/mL]	MIC (Staphylococcus aureus [12]) [µg/mL]	MIC (Streptococcus pyogenes [13]) [µg/mL]	MIC (Streptococcus agalactiae [14]) [µg/mL]	MIC (Staphylococcus aureus [15]) [µg/mL]	MIC (Enterococcus faecium [16]) [µg/mL]	MIC (Staphylococcus aureus [17]) [µg/mL]	MIC (Staphylococcus aureus [19]) [µg/mL]	MIC (Staphylococcus aureus [20]) [µg/mL]	MIC (Streptococcus agalactiae [21]) [µg/mL]	MIC (Enterococcus faecium [22]) [µg/mL]	MIC (Staphylococcus aureus [24]) [µg/mL]	also measured
CC[C@H]1OC(=O)[C@H](C)C[C@H](C)[C@@H](O[C@@H]2O[C@H](C)C[C@H](N(C)C)[C@H]2O)[C@](C)(OC)C[C@@H](C)C(=O)[C@H](C)[C@H]2N(CCCCc3ccccc3)C(=O)O[C@]12C	0.02 (≈ 0.0274 µM)	0.39	1.56 (≈ 2.13 µM)	0.02	1.56 (≈ 2.13 µM)	0.39	0.05 (≈ 0.0684 µM)	50 (≈ 68.4 µM)	0.39	1.56 (≈ 2.13 µM)	0.02	0.1 (≈ 0.137 µM)	> 100	0.39 (≈ 0.534 µM)	1.56 (≈ 2.13 µM)	25	50 (≈ 68.4 µM)	0.02	0.1	0.39	MIC (Streptococcus pyogenes [5]): 6.2 µg/mL; MIC (Escherichia coli [10]): 1.56 µg/mL (≈ 2.13 µM); MIC (Escherichia coli [18]): 100 µg/mL; MIC (Escherichia coli [23]): > 100 µg/mL; MIC (Staphylococcus aureus [25]): 0.39 µg/mL; MIC (Streptococcus pyogenes [26]): 0.2 µg/mL (≈ 0.274 µM); MIC (Staphylococcus aureus [27]): 1.56 µg/mL (≈ 2.13 µM); MIC (Staphylococcus aureus [28]): > 100 µg/mL; MIC (Escherichia coli [29]): 0.39 µg/mL; MIC (Staphylococcus aureus [30]): 1.56 µg/mL (≈ 2.13 µM)
CC[C@H]1OC(=O)[C@H](C)C(=O)[C@H](C)[C@@H](O[C@@H]2O[C@H](C)C[C@H](N(C)C)[C@H]2O)[C@](C)(OC)C[C@@H](C)C(=O)[C@H](C)[C@@H](O)[C@]1(C)O	0.05 (≈ 0.0851 µM)	0.2	0.39 (≈ 0.664 µM)	0.02	0.39 (≈ 0.664 µM)	0.2	0.1 (≈ 0.17 µM)	> 100	0.2	0.2 (≈ 0.34 µM)	0.05	0.2 (≈ 0.34 µM)	> 100	0.2 (≈ 0.34 µM)	0.1 (≈ 0.17 µM)	1.56	> 100	0.05	0.05	0.2	MIC (Streptococcus pyogenes [31]): > 100 µg/mL; MIC (Streptococcus pyogenes [5]): 3.1 µg/mL; MIC (Streptococcus pyogenes [32]): > 100 µg/mL; MIC (Escherichia coli [10]): 0.39 µg/mL (≈ 0.664 µM); MIC (Escherichia coli [18]): 50 µg/mL; MIC (Escherichia coli [23]): > 100 µg/mL; MIC (Staphylococcus aureus [25]): 0.2 µg/mL; MIC (Streptococcus pyogenes [26]): 0.3 µg/mL (≈ 0.51 µM); MIC (Staphylococcus aureus [27]): 0.2 µg/mL (≈ 0.34 µM); MIC (Staphylococcus aureus [28]): > 100 µg/mL; MIC (Escherichia coli [29]): 0.2 µg/mL; MIC (Staphylococcus aureus [30]): 0.2 µg/mL (≈ 0.34 µM)
CC[C@H]1OC(=O)[C@H](C)C[C@H](C)[C@@H](O[C@@H]2O[C@H](C)C[C@H](N(C)C)[C@H]2O)[C@](C)(OC)C[C@@H](C)C(=O)[C@H](C)[C@H]2N(CCc3ccc(Oc4ccccc4)cc3)C(=O)O[C@]12C	1.56 (≈ 1.96 µM)	0.39	12.5 (≈ 15.7 µM)	0.05	12.5 (≈ 15.7 µM)	0.39	1.56 (≈ 1.96 µM)	25 (≈ 31.4 µM)	0.39	6.2 (≈ 7.8 µM)	0.02	1.56 (≈ 1.96 µM)	> 100	1.56 (≈ 1.96 µM)	6.2 (≈ 7.8 µM)	12.5	25 (≈ 31.4 µM)	0.05	0.05	0.39	MIC (Streptococcus pyogenes [31]): > 100 µg/mL; MIC (Streptococcus pyogenes [5]): 6.2 µg/mL; MIC (Streptococcus pyogenes [32]): 6.2 µg/mL (≈ 7.8 µM); MIC (Staphylococcus aureus [25]): 0.39 µg/mL; MIC (Streptococcus pyogenes [26]): 3.1 µg/mL (≈ 3.9 µM); MIC (Staphylococcus aureus [27]): 6.2 µg/mL (≈ 7.8 µM); MIC (Staphylococcus aureus [28]): > 100 µg/mL; MIC (Staphylococcus aureus [30]): 12.5 µg/mL (≈ 15.7 µM)
CC[C@H]1OC(=O)[C@H](C)C[C@H](C)[C@@H](O[C@@H]2O[C@H](C)C[C@H](N(C)C)[C@H]2O)[C@](C)(OC)C[C@@H](C)C2=NCCN3C(=O)O[C@@]1(C)[C@H]3[C@H]2C	0.39 (≈ 0.625 µM)	0.39	12.5 (≈ 20 µM)	0.05	6.2 (≈ 9.94 µM)	0.39	0.39 (≈ 0.625 µM)	> 100	0.39	6.2 (≈ 9.94 µM)	0.02	0.39 (≈ 0.625 µM)	> 100	0.78 (≈ 1.25 µM)	6.2 (≈ 9.94 µM)	12.5	> 100	0.05	0.05	0.39	MIC (Streptococcus pyogenes [31]): > 100 µg/mL; MIC (Streptococcus pyogenes [5]): 6.2 µg/mL; MIC (Streptococcus pyogenes [32]): > 100 µg/mL; MIC (Staphylococcus aureus [25]): 0.39 µg/mL; MIC (Streptococcus pyogenes [26]): 0.78 µg/mL (≈ 1.25 µM); MIC (Staphylococcus aureus [27]): 6.2 µg/mL (≈ 9.94 µM); MIC (Staphylococcus aureus [28]): > 100 µg/mL; MIC (Staphylococcus aureus [30]): 6.2 µg/mL (≈ 9.94 µM)
CC[C@H]1OC(=O)[C@H](C)C[C@H](C)[C@@H](O[C@@H]2O[C@H](C)C[C@H](N(C)C)[C@H]2O)[C@](C)(OC)C[C@@H](C)/C(=N\OC)[C@H](C)[C@@H](O)[C@]1(C)O	3.1 (≈ 5.14 µM)	0.39	100 (≈ 166 µM)	0.01	100 (≈ 166 µM)	0.39	6.2 (≈ 10.3 µM)	> 100	0.2	100 (≈ 166 µM)	0.01	25 (≈ 41.5 µM)	> 100	100 (≈ 166 µM)	100 (≈ 166 µM)	6.2	> 100	0.02	0.1	0.39	MIC (Streptococcus pyogenes [31]): > 100 µg/mL; MIC (Streptococcus pyogenes [32]): 100 µg/mL (≈ 166 µM); MIC (Escherichia coli [10]): 6.2 µg/mL (≈ 10.3 µM); MIC (Escherichia coli [18]): 50 µg/mL; MIC (Escherichia coli [23]): > 100 µg/mL; MIC (Staphylococcus aureus [25]): 0.2 µg/mL; MIC (Staphylococcus aureus [27]): 100 µg/mL (≈ 166 µM); MIC (Staphylococcus aureus [28]): > 100 µg/mL; MIC (Escherichia coli [29]): 0.39 µg/mL; MIC (Staphylococcus aureus [30]): 100 µg/mL (≈ 166 µM)
